Assays:
[1] = test system: patients with PH post-LVAD implantation; assay: Phase 2 placebo-controlled study in PH post-LVAD implantation: right heart catheterization hemodynamics (PVR by thermodilution); format: in vivo, human
Procedure: (§1) This is a double-blind, placebo-controlled, multicenter, parallel-group Phase 2 study assessing the efficacy and safety of macitentan in PH post-LVAD implantation. Approximately 57 adult patients with PH post-LVAD implantation were randomized (1:1) to receive either macitentan 10 mg, or matching placebo, once daily orally.
After implantation of the LVAD, patients meet baseline hemodynamic criteria of PH via RHC during the last measurement prior to the first dose of drug, defined as mPAP≥25 mmHg at rest and PAWP≤18 mmHg and PVR>3 WU. Patients are randomized within 90 days of surgical implantation of LVAD and within 14 days of Baseline RHC.
• (i) Primary efficacy endpoint: The primary efficacy endpoint is PVR ratio of Week 12 to Baseline. PVR is obtained by the thermodilution method. See, Table 7 for the FAS, Table 8 for the ES, and Table 9 for the PPS.
An RHC conducted prior to signing the Informed Consent may be accepted as the Baseline RHC. Baseline RHC is performed by the thermodilution method, after LVAD implantation and prior to first dose of treatment (which occurs within 90 days post-surgical implantation of LVAD). Randomization (Visit 2) is within 14 days of Baseline RHC. Patients are excluded if they were treated with ERAs, PDE5 inhibitors, i.v., s.c., or oral prostanoids, or guanylate cyclase stimulators within 7 days prior to Baseline RHC or treatment initiation. Patients are excluded if they were treated with inhaled prostanoids (e.g., iloprost, epoprostenol), nitric oxide or i.v. inotropes or vasopressors within 24 h prior to Baseline RHC or treatment initiation. LVAD pump speed/flow rate may be adjusted during the treatment period and during the Baseline RHC.
An RHC is repeated at Week 12, or within 7 days of permanent discontinuation of treatment if prior to Week 12. The Week 12 RHC is performed by the thermodilution method, and not within 24 h of treatment with i.v. inotropes or vasopressors.
The following variables also are measured: pulse rate, PAWP, mRAP, systolic/diastolic/mean PAP, CO, and SVO2 and non-invasive mean, SBP and DBP if available. PVR is calculated. CO measurements, and PVR calculations, during both Baseline and Week 12 RHC is obtained via the thermodilution method. All primary end point calculations is based on thermodilution method-calculated PVR.
The following hemodynamic variables are calculated: PVR, TPR, and CI.
The primary efficacy variable is PVR ratio of Week 12 to Baseline. PVR [WU] is calculated as (mPAP-PAWP)/CO.
The ratio of Week 12 to Baseline PVR is log-transformed (base e) and analyzed using an analysis of covariance (ANCOVA) with a factor for treatment group and a covariate for Baseline log PVR (macitentan vs. placebo). The treatment group difference (on log scale) and its 95% CLs are estimated based on the model. The geometric mean ratio (GMR; macitentan vs. placebo) and its 95% confidence interval are obtained by exponentiation. The null hypothesis is rejected if the entire 95% confidence interval is below one.
The treatment effect is expressed as (GMR-1)×100%, where a negative value indicates a reduction of PVR in the macitentan group as compared to the placebo group.

[2] = test system: patients with PH post-LVAD implantation; assay: Phase 2 study in PH post-LVAD implantation: change in WHO functional class; format: in vivo, human
Procedure: as §1
Change from Baseline to Week 12 in WHO FC. See, Table 10.
WHO FC is summarized by time point and treatment group using frequency tables. Changes from Baseline in WHO FC are dichotomized as worsening (i.e., change >0) versus no change or improvement (i.e., change≤0). Worsening is analyzed using a logistic regression model with covariates for treatment group and WHO FC.

[3] = humans, cited from earlier work
[4] = 10 mg once daily, Week 12: Baseline, FAS, n 27
[5] = 10 mg once daily, post-hoc analysis
[6] = PVR calculated by programming, ES sensitivity analysis, 10 mg once daily, Week 12
[7] = PVR calculated by programming, PPS sensitivity analysis, 10 mg once daily, Week 12
[8] = PVR calculated by programming, primary analysis, FAS, 10 mg once daily, Week 12
[9] = PVR reported by INV, sensitivity analysis, FAS, 10 mg once daily, Week 12
[10] = FAS, N = 25, baseline to Week 12

In the case of `CCCNS(=O)(=O)Nc1ncnc(OCCOc2ncc(Br)cn2)c1-c1ccc(Br)cc1` [Macitentan, propylsulfamic acid [5-(4-bromo-phenyl)-6-[2-(5-bromo-pyrimidin-2-yloxy)-ethoxy]-pyrimidin-4-yl]-amide], the “DPG, Least squares mean change from baseline” value ([1]; 10 mg once daily, Day 84 or EOT, FAS, n 23) is reported as −6.0383 mmHg, the “TPG, Least squares mean change from baseline” value ([1]; 10 mg once daily, Day 84 or EOT, FAS, n 24) is reported as −7.6521 mmHg and the “Change in CI, Comparison to Placebo, Difference of least squares mean” value ([1]; 10 mg once daily, FAS) is reported as 0.1209 L/min/m^2. The “Change in CO, Comparison to Placebo, Difference of least squares mean” value ([1]; 10 mg once daily, FAS) was 0.2064 L/min, the “Change in DPG, Comparison to Placebo, Difference of least squares mean” value ([1]; 10 mg once daily, FAS) was −2.7136 mmHg and the “Change in PAWP, Comparison to Placebo, Difference of least squares mean” value ([1]; 10 mg once daily, FAS) was 2.3514 mmHg. For the same compound, the “Change in SvO2, Comparison to Placebo, Difference of least squares mean” value ([1]; 10 mg once daily, FAS) was 0.4285%, the “Change in TPG, Comparison to Placebo, Difference of least squares mean” value ([1]; 10 mg once daily, FAS) was −2.7022 mmHg and the “Change in TPR, Comparison to Placebo, Difference of least squares mean” value ([1]; 10 mg once daily, FAS) was −0.4422 mmHg min/L. The “mPAP (end-expiratory mean line), Comparison to Placebo, Difference of least squares mean” value ([1]; 10 mg once daily, FAS) was −0.3052 mmHg, the “mRAP, Comparison to Placebo, Difference of least squares mean” value ([1]; 10 mg once daily, FAS) was 2.1396 mmHg and the “DPG at Day 84 or EOT, mean (SD)” value ([1]; 10 mg once daily, FAS, n 23) was 3.87 (5.619) mmHg. The “Change in CI at Day 84 or EOT compared to Baseline, Least squares mean” value ([1]; 10 mg once daily, FAS, n 24) was 0.1284 L/min/m^2, the “Change in CO at Day 84 or EOT compared to Baseline, Least squares mean” value ([1]; 10 mg once daily, FAS, n 24) was 0.3655 L/min and the “Change in PAWP at Day 84 or EOT compared to Baseline, Least squares mean” value ([1]; 10 mg once daily, FAS, n 24) was 3.4038 mmHg. The “Change in SvO2 at Day 84 or EOT compared to Baseline, Least squares mean” value ([1]; 10 mg once daily, FAS, n 24) was 4.7801%, the “Change in TPR at Day 84 or EOT compared to Baseline, Least squares mean” value ([1]; 10 mg once daily, FAS, n 24) was −1.4175 mmHg min/L and the “PVR at Week 12/EOT, Mean (std)” value ([1]; 10 mg once daily, FAS, n 24) was 2.555 (1.0607) WU. For the same compound, the “PVR at Week 12/EOT, Median” value ([1]; 10 mg once daily, FAS, n 24) was 2.644 WU, the “TPG at Day 84 or EOT, mean (SD)” value ([1]; 10 mg once daily, FAS, n 24) was 12.13 (4.902) mmHg and the “mPAP (end-expiratory mean line), change from baseline, Least squares mean” value ([1]; 10 mg once daily, FAS, n 24) was −4.2251 mmHg. For the same compound, the “mRAP, change from baseline, Least squares mean” value ([1]; 10 mg once daily, FAS, n 24) was 0.6222 mmHg, the “Change in mPAP at Day 84 or EOT compared to Baseline, Least squares mean” value ([1]; 10 mg once daily, FAS, n 24, second mPAP section of Table 11) was −4.8854 mmHg and the “Change in TPG, Comparison to Placebo, Difference of least squares mean” value ([1]; 10 mg once daily, FAS, listed as macitentan) was −2.7 mmHg. The “Change in mPAP, Comparison to Placebo, Difference of least squares mean” value ([1]; 10 mg once daily, FAS, second mPAP section of Table 11) was −1.3035 mmHg, the “reduction in PVR for macitentan vs placebo” value ([1]; 10 mg once daily, Week 12) was 26% and the “PVR Ratio to Baseline, Mean (std)” value [1, 4] was 0.585 (0.2280). The “PVR Ratio to Baseline, Median” value [1, 4] was 0.573, the “patients with postbaseline PVR<3 WU, number” value [1, 5] was 16 and the “patients with postbaseline PVR<3 WU, percent” value [1, 5] was 66.7%. The “PVR (Geometric mean ratio − 1) × 100%” value [1, 6] was −26.3%, the “PVR Geometric Mean Ratio, comparison to placebo” value (“PVR Geometric Mean Ratio” below) [1, 6] was 0.7371 and the “PVR (Geometric mean ratio − 1) × 100%” value [1, 7] was −37.6%. The “PVR Geometric Mean Ratio” value [1, 7] was 0.6236, the “PVR (Geometric mean ratio − 1) × 100%” value [1, 8] was −26.1% and the “PVR Geometric Mean Ratio” value [1, 8] was 0.7393. The “PVR Geometric Mean Ratio” value ([1]; PVR calculated by programming, primary analysis, FAS, 10 mg once daily, Week 12, listed as macitentan) was 0.74, the “PVR (Geometric mean ratio − 1) × 100%” value [1, 9] was −26.1% and the “PVR Geometric Mean Ratio” value [1, 9] was 0.7386. For the same compound, the “effect on PVR in words” value ([1]; early post-LVAD population) was “significantly reduced PVR”, the “LV filling in words” value ([1]; from PAWP and CO data) was “improved LV filling” and the “proportion with postbaseline PVR<3 WU” value ([1]; patients with baseline PVR<4 WU, n=10) was 90.0%. For the same compound, the “proportion with postbaseline PVR<3 WU” value ([1]; patients with baseline PVR>4 WU, n=14) was 50.0%, the “WHO FC Improvement (change < 0), number of patients” value [2, 10] was 10 and the “WHO FC Improvement (change < 0), percent of patients” value [2, 10] was 40.0%. For the same compound, the “WHO FC No change (change = 0), number of patients” value [2, 10] was 13, the “WHO FC No change (change = 0), percent of patients” value [2, 10] was 52.0% and the “WHO FC Worsening (change > 0), number of patients” value [2, 10] was 2. For the same compound, the “WHO FC Worsening (change > 0), percent of patients” value [2, 10] was 8.0%, the “Change in WHO FC, Odds Ratio Macitentan relative to Placebo (95% Confidence Interval)” value ([2]; ordered logistic regression adjusting for baseline, higher OR = better change) was 1.333 (0.417, 4.255) and the “time to steady state” value ([3]; 10 mg oral dose once a day) was “third day”. For the same compound, the “absorption into the plasma” value [3] was “absorbed slowly” and the half-life [3] was “about 16 hours”.
